Data set [1] concerns E. multilocularis metacestodes. In words: Peroral treatment of secondary infected mice. In kind it is in vivo, BALB/c mice. Particulars: p.o. gavage 5 days per week, 4 weeks, MMV665807 100 mg/kg, ABZ 200 mg/kg. As to the method:
(§1) Animals were kept at a temperature-controlled 12/12 hours light cycle with food and water ad libitum and according to the Swiss Animal protection law. For the in vivo treatment of MMV665807, BALB/c mice (from Charles River, Sulzfeld, Germany), at the age of 8 weeks with an average body weight of 20 g, were i.p. infected with 200 μL metacestodes vesicle suspension. This material was prepared from in vitro-cultured metacestodes (strain H95), which were disintegrated by pressing the parasites through a 1 mL pipette tip. Parasite tissue was centrifuged at 500 x g for 5 min at room temperature before being mixed 1:1 in PBS.
Peroral (p.o.) drug treatments by gavage were initiated 6 weeks post-infection and performed as follows: group 1 received no treatment at all; group 2 received 100 μL corn oil containing 7.8 μL DMSO; group 3 mice were treated with 100 μL corn oil containing albendazole (ABZ) in 7.8 μL DMSO, in order to obtain a dosage of 200 mg/kg body weight (positive control); group 4 was treated with 100 μL corn oil containing MMV665807 in 7.8 μL DMSO, resulting in 100 mg/kg body weight. All mice were treated for a total time period of 4 weeks, with consecutive treatment during 5 days per week, and interruption of treatment for 2 days each week. At the end of the treatment, all mice were sedated by isoflurane and subsequently euthanized by CO2. All parasite tissue was resected, placed into a petri dish, and the parasite mass was weighed. Statistical analysis of the in vivo experiments was performed in R version 3.0.1. The data distribution was checked by Shapiro-Wilk test and eventual differences between treatment groups identified by the non-parametric Kruskal-Wallis test. P values were calculated by the non-parametric Wilcoxon […] test with Bonferroni-adjustment. Boxplot visualizations of the data were prepared in Microsoft Excel 2010.

The test system of data set [2] is E. multilocularis metacestodes. In words: Intraperitoneal treatment of secondary infected mice. Particulars: 4 weeks, MMV665807 100 mg/kg i.p. three times per week, ABZ 200 mg/kg p.o. 5 days per week. In kind it is in vivo, BALB/c mice. The method, then: as §1
I.p. drug treatments were initiated 2 weeks post-infection. 32 infected mice were randomly separated into 4 groups with 2 times 4 animals per cage. All animals were exposed to 4 weeks of treatment, with five consecutive days of drug application followed by a 2 day recovery period without treatment. Treatment groups were defined as follows: group 1 (control) received 50 μL of corn oil by gavage on 5 days per week, and an i.p. injection of DMSO in corn oil (4 μL DMSO and 46 μL corn oil) on three days per week; group 2 also received corn oil by gavage 5 days per week, and an i.p. injection of MMV665807 (100 mg/kg in 4 μL DMSO plus 46 μL corn oil) three times per week; group 3 was treated with the standard albendazole treatment (albendazole in corn oil, 200 mg/kg/ day for 5 days each week) and also received an i.p. injection of 4 μl DMSO suspended in 46 μl corn oil three times per week; group 4 received a combined treatment consisting of albendazole in corn oil by gavage (200 mg/kg/day 5 days per week) and an i.p. injection of MMV665807 (100 mg/kg three times per week). After 4 weeks of treatment, mice were euthanized and the parasite mass resected and measured as described above. Statistical analyses were performed as described above.

In data set [3] the test system is murine macrophages. More on the design: method as in PMID 23211970. To be noted: cited from earlier work.
Details of data set [4]: method as in earlier work. Particulars: HMS, Mouse; ref MMV; cited from earlier work.
Details of data set [5]: method as in earlier work. Particulars: PLS, ref MMV; cited from earlier work.

Molecules are shown by their SMILES.

As usually defined, the IC50 is the midpoint of a concentration-inhibition curve. The term t½ denotes how long it takes for the measured level to halve. Take `O=C(Nc1cccc(C(F)(F)F)c1)c1cc(Cl)ccc1O` [MMV665807]: in data set [1] (start 6 weeks post-infection), the “parasite weight compared to control” value was “no effect”. The “adverse effects during treatment” value in data set [1] was “No adverse effects”. Also, in data set [2] (start 2 weeks post-infection), the “parasite weight compared to placebo group” value was “did not result in a reduction”. Further, the “adverse effects during treatment” value in data set [2] is reported as “No adverse effects”. The IC50 in data set [3] was 5.9 µM. In addition, in data set [4], the CLint is on record as 302.9 mL/min/kg and the t½ was 27.2 min. Besides, the “% Remaining after Incubation (60 min) Human Plasma” value in data set [5] was 83.2%.

Values taken from publication PMC4788259 (PLoS Neglected Tropical Diseases, 2016).
